According to patent US20060069084A1, “Methods of inhibiting kinases” (priority 2001, published 2006):
Blank lines part the entries; values can stand above or below the compound they belong to.

Key:
[1] = test system: Jurkat; test: Jurkat cellular growth assay (MTT); assay type: cell-based; conditions: Table 4, inhibit 50% of cellular growth, 40 hr incubation
Experimental: (§1) Cellular assays were performed as follows:
(§2) Cell suspensions were prepared by harvesting cells from culture. Cell used in this test should be in later log phase growth and high viability. Cells were diluted in correct growth medium to 1.1× final concentration (from 50000 cell/ml to 200,000 cell/ml, depending on cell line). 90 μL was added to samples, diluted in PBS to 10× final concentration in flat-bottom 96-well plates (10 μL). After incubation for 40 hr in 37° C. 5% CO2 incubator, MTT 5 mg/ml (in PBS, filter sterile) 20 μl per well was added. The plates were returned to incubator for another 6 hours. Lysis Buffer (10% SDS, 0.01N HCl) 100 μl per well was added and the plate put back in incubator overnight. The plate was then read at 590 nm.

[2] = test system: TSU; test: TSU cellular growth assay (MTT); assay type: cell-based; conditions: Table 4, inhibit 50% of cellular growth, 40 hr incubation
Experimental: as §1, §2

[3] = test system: T-cell activation; test: T-cell activation cellular assay (MTT); assay type: cell-based; conditions: Table 4, 40 hr incubation
Experimental: as §1, §2

[4] = molecular target: T1, JAK2 (Homo sapiens, UniProt O60674); test: JAK2 kinase domain capture-based ELISA kinase assay; assay type: biochemical; conditions: inhibit 50% of activity at 50 μM
T1 construct: The kinase domain of humanJAK2 was amplified from U937mRNA; His tag (from pFastBac HTc vector; nickel chelate purification) (N); made in house; host or cells: baculovirus; virus made in Sf9, large-scale expression in High Five insect cells
How it was run: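 His-tagged human JAK2 kinase domain was baculovirus-expressed in High Five insect cells and nickel-purified. Phosphotyrosine was captured on avidin plates and detected by ELISA with peroxidase-linked PY20.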

[5] = molecular target: T2, JAK1 (Homo sapiens, UniProt P23458); test: JAK1 kinase domain capture-based ELISA kinase assay; assay type: biochemical; conditions: inhibit 50% of activity at 50 μM
T2 construct: The kinase domain of humanJAK1 was amplified from U937mRNA; His tag (from pFastBac HTb vector; nickel chelate purification) (N); made in house; host or cells: baculovirus; virus made in Sf9, large-scale expression in High Five insect cells
How it was run: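 His-tagged human JAK1 kinase domain was expressed via baculovirus in High Five insect cells and purified on nickel chelate resin. Phosphotyrosine was quantified by ELISA with peroxidase-linked PY20 after capture on avidin plates.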

[6] = molecular target: T3, TYK2 (Homo sapiens, UniProt P29597); test: TYK2 kinase domain capture-based ELISA kinase assay; assay type: biochemical; conditions: inhibit 50% of activity at 50 μM
T3 construct: The kinase domain of humanTYK2 was amplified from A549 mRNA; His tag (from pBlueBacHis2A vector; nickel chelate purification) (N); made in house; host or cells: baculovirus; virus made in Sf9, large-scale expression in High Five insect cells
T3 sequence (P29597 897-1176 limits assumed): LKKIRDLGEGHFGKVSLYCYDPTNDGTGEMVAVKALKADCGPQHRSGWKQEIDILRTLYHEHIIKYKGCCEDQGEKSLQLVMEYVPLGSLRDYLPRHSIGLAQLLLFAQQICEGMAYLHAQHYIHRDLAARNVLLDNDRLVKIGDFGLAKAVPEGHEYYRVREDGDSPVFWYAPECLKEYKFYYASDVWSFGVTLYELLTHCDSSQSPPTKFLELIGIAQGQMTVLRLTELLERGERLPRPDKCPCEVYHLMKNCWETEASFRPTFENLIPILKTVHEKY
How it was run: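 His-tagged human TYK2 kinase domain expressed in baculovirus-infected insect cells and Ni-affinity purified. Biotinylated peptide substrate (5 μM final); phosphotyrosine captured on avidin plate and detected by peroxidase-linked PY20 antibody ELISA.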

[7] = molecular target: T4, JAK3 (Homo sapiens, UniProt P52333); test: JAK3 kinase domain capture-based ELISA kinase assay; assay type: biochemical; conditions: inhibit 50% of activity at 50 μM
T4 construct: The kinase domain of humanJAK3 was amplified from U937mRNA; His tag (from pFastBac HTb vector; nickel chelate purification) (N); made in house; host or cells: baculovirus; virus made in Sf9, large-scale expression in High Five insect cells
How it was run: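 The human JAK3 kinase domain was His-tagged, baculovirus-expressed in High Five cells and nickel-affinity purified. Tyrosine phosphorylation was quantified on avidin-coated ELISA plates with peroxidase-linked anti-phosphotyrosine antibody PY20.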

T1 sequence (O60674 849-1124 limits assumed): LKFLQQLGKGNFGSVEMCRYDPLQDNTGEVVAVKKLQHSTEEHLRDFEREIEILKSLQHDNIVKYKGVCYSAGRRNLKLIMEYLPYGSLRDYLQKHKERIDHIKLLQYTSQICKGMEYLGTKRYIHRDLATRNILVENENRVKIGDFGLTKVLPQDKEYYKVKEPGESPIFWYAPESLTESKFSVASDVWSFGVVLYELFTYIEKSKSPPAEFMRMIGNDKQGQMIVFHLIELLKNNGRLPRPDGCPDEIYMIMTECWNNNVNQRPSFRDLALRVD
T4 sequence (P52333 822-1111 limits assumed): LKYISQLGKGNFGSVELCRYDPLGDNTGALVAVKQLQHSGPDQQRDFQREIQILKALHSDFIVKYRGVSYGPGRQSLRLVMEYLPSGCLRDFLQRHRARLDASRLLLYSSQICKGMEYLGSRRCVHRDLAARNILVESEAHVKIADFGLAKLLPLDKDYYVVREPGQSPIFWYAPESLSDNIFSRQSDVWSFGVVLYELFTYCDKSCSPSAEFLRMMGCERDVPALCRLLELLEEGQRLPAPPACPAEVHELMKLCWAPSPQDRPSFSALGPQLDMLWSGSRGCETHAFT
T2 sequence (P23458 875-1153 limits assumed): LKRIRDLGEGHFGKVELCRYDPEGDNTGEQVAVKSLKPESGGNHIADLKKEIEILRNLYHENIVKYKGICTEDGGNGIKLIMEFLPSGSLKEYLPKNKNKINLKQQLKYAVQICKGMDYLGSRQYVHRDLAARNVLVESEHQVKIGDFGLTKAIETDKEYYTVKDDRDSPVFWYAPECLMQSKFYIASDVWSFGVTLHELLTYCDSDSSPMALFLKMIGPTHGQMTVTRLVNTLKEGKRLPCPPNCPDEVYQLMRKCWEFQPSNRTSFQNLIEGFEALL

Structure (SMILES): COc1cncc(-c2cncc(NCc3ccc(F)cc3)n2)c1 [drawing 53]
IC50 ([1]; Homo sapiens, Jurkat, 40 h): 50 µM
IC50 [2]: 50 µM
IC50 ([3]; T-cell, 40 h): 30 µM

Structure (SMILES): COc1cncc(-c2cncc(N[C@@H](C)c3ccccc3)n2)c1 [drawing 54]
IC50 ([1]; Homo sapiens, Jurkat, 40 h): 50 µM
IC50 [2]: 20 µM
IC50 ([3]; T-cell, 40 h): 15 µM

Structure (SMILES): COc1cc(-c2cncc(N[C@@H](C)c3ccccc3)n2)cc(OC)c1OC [drawing 55]
IC50 [1]: 20 µM
IC50 [2]: 10 µM
IC50 [3]: 10 µM

Structure (SMILES): COc1cc(-c2cncc(NCc3ccccc3)n2)cc(OC)c1OC [drawing 56]
IC50 ([1]; Homo sapiens, Jurkat, 40 h): 20 µM
IC50 [2]: 10 µM
IC50 ([3]; T-cell, 40 h): 15 µM

Structure (SMILES): COc1cc(-c2cncc(N[C@@H](C)c3ccccc3)n2)cc(OC)c1OC [drawing 57]
IC50 ([1]; Homo sapiens, Jurkat, 40 h): 35 µM
IC50 [2]: 10 µM
IC50 ([3]; T-cell, 40 h): 12 µM

Structure (SMILES): C[C@H](Nc1cncc(-c2cccc(CO)c2)n1)c1ccccc1 [drawing 58]
IC50 ([1]; Homo sapiens, Jurkat, 40 h): 20 µM
IC50 [2]: 15 µM
IC50 ([3]; T-cell, 40 h): 20 µM

Structure (SMILES): COc1cncc(-c2cncc(NCC(C)(C)CO)n2)c1 [drawing 59]
IC50 ([1]; Homo sapiens, Jurkat, 40 h): 40 µM
IC50 [2]: 40 µM
IC50 ([3]; T-cell, 40 h): 15 µM

Structure (SMILES): CC(=O)Nc1cccc(-c2cncc(NCc3cccc(Cl)c3)n2)c1 [drawing 60]
IC50 ([1]; Homo sapiens, Jurkat, 40 h): 40 µM
IC50 [2]: 5 µM
IC50 ([3]; T-cell, 40 h): 30 µM

Structure (SMILES): Oc1ccc(-c2cn3ccnc3c(N3CCOCC3)n2)cc1 [drawing 75]
IC50 ([4]; Table 5): < 50 µM
IC50 ([5]; Table 5): < 50 µM
IC50 ([6]; Table 5): < 50 µM
IC50 ([7]; Table 5): < 50 µM

Structure (SMILES): Brc1cn2ccnc2c(Nc2ccc(N3CCOCC3)cc2)n1 [drawing 82]
IC50 ([4]; Table 5): < 50 µM
IC50 ([5]; Table 5): < 50 µM
IC50 ([6]; Table 5): < 50 µM
IC50 ([7]; Table 5): < 50 µM

Structure (SMILES): CCN(CCO)c1ccc(Nc2nc(Br)cn3ccnc23)cc1 [drawing 83]
IC50 ([4]; Table 5): < 50 µM
IC50 ([5]; Table 5): < 50 µM
IC50 ([6]; Table 5): < 50 µM
IC50 ([7]; Table 5): < 50 µM

Structure (SMILES): COCCNc1nc(-c2ccccc2)cn2ccnc12 [drawing 85]
IC50 ([4]; Table 5): < 50 µM
IC50 ([5]; Table 5): < 50 µM
IC50 ([6]; Table 5): < 50 µM
IC50 ([7]; Table 5): < 50 µM

Structure (SMILES): Nc1cccc(-c2cn3ccnc3c(Nc3ccccc3)n2)c1 [drawing 87]
IC50 ([4]; Table 6): < 50 µM
IC50 ([5]; Table 6): < 50 µM
IC50 ([6]; Table 6): < 50 µM
IC50 ([7]; Table 6): > 50 µM

More lines, now with the values ahead:

IC50 ([4]; Table 6): < 50 µM
IC50 ([5]; Table 6): > 50 µM
IC50 ([6]; Table 6): > 50 µM
IC50 ([7]; Table 6): > 50 µM
Structure (SMILES): Oc1ccc(-c2cn3ccnc3c(N3CCOCC3)n2)cc1 [drawing 90]

IC50 ([4]; Table 6): < 50 µM
IC50 ([5]; Table 6): < 50 µM
IC50 ([6]; Table 6): > 50 µM
IC50 ([7]; Table 6): > 50 µM
Structure (SMILES): COCCNc1nc(-c2ccccc2)cn2ccnc12 [drawing 93]

IC50 ([4]; Table 6): < 50 µM
IC50 ([5]; Table 6): < 50 µM
IC50 ([6]; Table 6): > 50 µM
IC50 ([7]; Table 6): > 50 µM
Structure (SMILES): CCN(CCO)c1ccc(Nc2nc(-c3cccc4ccccc34)cn3ccnc23)cc1 [drawing 94]

IC50 ([4]; Table 6): < 50 µM
IC50 ([5]; Table 6): < 50 µM
IC50 ([6]; Table 6): < 50 µM
IC50 ([7]; Table 6): > 50 µM
Structure (SMILES): CCN(CCO)c1ccc(Nc2nc(-c3ccccc3CO)cn3ccnc23)cc1 [drawing 96]

IC50 ([4]; Table 6): < 50 µM
IC50 ([5]; Table 6): < 50 µM
IC50 ([6]; Table 6): < 50 µM
IC50 ([7]; Table 6): > 50 µM
Structure (SMILES): Brc1cn2ccnc2c(Nc2ccc(N3CCOCC3)cc2)n1 [drawing 100]

IC50 ([4]; Table 6): < 50 µM
IC50 ([5]; Table 6): < 50 µM
IC50 ([6]; Table 6): < 50 µM
IC50 ([7]; Table 6): > 50 µM
Structure (SMILES): CCN(CCO)c1ccc(Nc2nc(Br)cn3ccnc23)cc1 [drawing 101]

IC50 ([4]; Table 6): < 50 µM
IC50 ([5]; Table 6): < 50 µM
IC50 ([6]; Table 6): < 50 µM
IC50 ([7]; Table 6): > 50 µM
Structure (SMILES): c1cc(-c2cn3ccnc3c(Nc3ccc(N4CCOCC4)cc3)n2)ccn1 [drawing 120]

IC50 ([4]; Table 6): < 50 µM
IC50 ([5]; Table 6): < 50 µM
IC50 ([6]; Table 6): < 50 µM
IC50 ([7]; Table 6): > 50 µM
Structure (SMILES): c1cncc(-c2cn3ccnc3c(Nc3ccc(N4CCOCC4)cc3)n2)c1 [drawing 131]

IC50 ([4]; Table 6): < 50 µM
IC50 ([5]; Table 6): < 50 µM
IC50 ([6]; Table 6): > 50 µM
IC50 ([7]; Table 6): > 50 µM
Structure (SMILES): OCc1ccccc1-c1cn2ccnc2c(Nc2ccc(N3CCOCC3)cc2)n1 [drawing 142]
